Experimental data: patent publication US20210169903A1, “PHARMACEUTICAL COMPOSITIONS AND METHODS” (Tyme, Inc., priority 2019, published 2021)

System: established subcutaneous CT26 murine colon carcinoma
Test: Anti-tumor activity of components of the transdermal formulation, intratumoral, tumor volume (Example 3)
Format: in vivo, female Balb/c mice
Design: TES Group Median / DT Group Median / TGD: unit not given here
Conditions: 50 μL intratumorally daily Day 11-17; for TGD: tumor growth delay versus Vehicle (0.0)
Method: A study is conducted to evaluate the anti-tumor activity of the components of the transdermal formulation intratumorally against established subcutaneous CT26 murine colon carcinoma in female Balb/c mice.
Vehicle control is saline solution. 3-surfactant mixture is a mixture of Nonaethylene glycol monododecyl ether, 1-Methyl-2-pyrrolidinone, and Linoleic Acid.
Tumor cells are implanted subcutaneously (Day 0). Once enrollment criteria are achieved, animals are distributed into treatment groups such that the mean tumor burden in each group is within 10% of the overall mean. Mice are dosed individually by body weight (50 μL fixed/injection intratumorally) on the day of treatment as described above. Animals are dose daily for 7 days beginning on Day 11 and ending on Day 17. Animals are held for tumor growth delay endpoint/tumor growth inhibition endpoint and complete regression/partial regression/tumor free survivor determination.

[1] = 2nd time-point column (day not given)
[2] = 4th time-point column (day not given)
[3] = 5th time-point column (day not given)
[4] = 6th time-point column (day not given)
[5] = 7th time-point column (day not given)

SMILES | Mean Tumor Volume [1] | Median Tumor Volume [1] | Mean Tumor Volume (3rd time-point (day not given)) | Median Tumor Volume (3rd time-point (day not given)) | Mean Tumor Volume [2] | Median Tumor Volume [2] | Mean Tumor Volume [3] | Median Tumor Volume [3] | Mean Tumor Volume [4] | Median Tumor Volume [4] | Mean Tumor Volume [5] | Median Tumor Volume [5] | DT Group Median | TES Group Median | Mean Tumor Volume (day not given) | Median Tumor Volume (day not given) | TGD
CCCCC/C=C\C/C=C\CCCCCCCC(=O)O [Linoleic Acid] | 283 mm^3 | 270 mm^3 | 481 mm^3 | 411 mm^3 | 777 mm^3 | 700 mm^3 | 1291 mm^3 | 1030 mm^3 | 1118 mm^3 | 1152 mm^3 | 2035 mm^3 | 2250 mm^3 | 3.5 | 18.7 | 132 mm^3 | 138 mm^3 | 0.6
CCCCCCCCCCCCOCCOCCOCCOCCOCCOCCOCCOCCOCCO [Nonaethylene glycol monododecyl ether] | 236 mm^3 | 246 mm^3 | 416 mm^3 | 368 mm^3 | 761 mm^3 | 819 mm^3 | 996 mm^3 | 988 mm^3 | 1364 mm^3 | 1311 mm^3 | 2017 mm^3 | 2009 mm^3 | 3.7 | 17.7 | 126 mm^3 | 125 mm^3 | −0.4
CN1CCCC1=O [1-Methyl-2-pyrrolidinone anhydrous, 1-Methyl-2-pyrrolidinone] | 278 mm^3 | 295 mm^3 | 428 mm^3 | 426 mm^3 | 688 mm^3 | 624 mm^3 | 1008 mm^3 | 918 mm^3 | 1216 mm^3 | 1183 mm^3 | 1910 mm^3 | 1812 mm^3 | 4.0 | 18.8 | 134 mm^3 | 141 mm^3 | 0.8
